These compounds were tested on KM12-luc cells (assay: Cell proliferation and growth inhibition assay (CCK-8) in KM12-luc). Conditions: KM12-Luc, 72 h, KM12-luc cells, treated with test compounds for 72 hrs, CCK-8 viability; read-out: NTRK IC50 in KM12-luc.
Format: cell-based
Method in brief: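 Cells were grown at 37 °C, 5% CO2 with 10% FBS: MV-4-11 in IMDM, H1975 in RPMI 1640, KM12-luc in DMEM. Viability was read by CCK-8 (1-4 hrs reagent incubation, absorbance at OD450). IC50 came from a non-linear sigmoidal dose-response fit.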

Q: Which IC50 does the source give for `CCN(CCN(C)C)c1ccc(Nc2ncc(C(F)(F)F)c(-c3c[nH]c4ccc(F)cc34)n2)cc1N` [Compound 324, N^1-(2-(dimethylamino)ethyl)-N^1-ethyl-N^4-(4-(5-fluoro-1H-indol-3-yl)-5-(trifluoromethyl)pyrimidin-2-yl)benzene-1,2,4-triamine] here?
A: 17.5 nM

Q: How did the IC50 turn out when `Cc1ccc2[nH]cc(-c3nc(Nc4ccc(N(C)CCN(C)C)c(N(C)C)c4)nc4[nH]ccc34)c2c1` [Compound 239, N^1-(2-(dimethylamino)ethyl)-N^1,N^2,N^2-trimethyl-N^4-(4-(5-methyl-1H-indol-3-yl)-7H-pyrrolo[2,3-d]pyrimidin-2-yl)benzene-1,2,4-triamine] was run?
A: 518 nM

Q: For `CC(=O)Nc1cc(Nc2ncc(Cl)c(-c3cn(C)c4ccccc34)n2)ccc1NC(=O)CCN(C)C` [Compound 408, N-(2-acetamido-4-((5-chloro-4-(1-methyl-1H-indol-3-yl)pyrimidin-2-yl)amino)phenyl)-3-(dimethylamino)propanamide], which IC50 is on record?
A: 19.7 nM

Q: Which IC50 does the source give for `CC(=O)Nc1cc(Nc2ncc(Cl)c(-c3cn(C)c4c(F)cccc34)n2)ccc1N1CC[C@H](N(C)C)C1` [Compound S-415, (S)—N-(5-((5-chloro-4-(7-fluoro-1-methyl-1H-indol-3-yl)pyrimidin-2-yl)amino)-2-(3-(dimethylamino)pyrrolidin-1-yl)phenyl)acetamide] here?
A: 155 nM

Q: Which IC50 does the source give for `CC(=O)Nc1cc(Nc2ncc(Cl)c(-c3cn(C)c4ccccc34)n2)cc(F)c1N(C)CCN(C)C` [Compound 396, N-(5-((5-chloro-4-(1-methyl-1H-indol-3-yl)pyrimidin-2-yl)amino)-2-((2-(dimethylamino)ethyl)(methyl)amino)-3-fluorophenyl)acetamide] here?
A: 80.3 nM

Q: `CC(=O)Nc1cc(Nc2nc(-c3cn(C)c4ccccc34)c3occc3n2)ccc1N(C)CCN(C)C` [Compound 256a, N-(2-((2-(dimethylamino)ethyl)(methyl)amino)-5-((4-(1-methyl-1H-indol-3-yl)furo[3,2-d]pyrimidin-2-yl)amino)phenyl)acetamide] was tested. Which IC50 did it give?
A: 447 nM

Q: `CCN(CCN(C)C)c1c(F)cc(Nc2nc(-c3cn(C)c4ccccc34)c3cc[nH]c3n2)cc1NC(C)=O` [Compound 195a, N-(2-((2-(dimethylamino)ethyl)(ethyl)amino)-3-fluoro-5-((4-(1-methyl-1H-indol-3-yl)-7H-pyrrolo[2,3-d]pyrimidin-2-yl)amino)phenyl)acetamide] was tested. Which IC50 did it give?
A: 153 nM

Q: How did the IC50 turn out when `Cc1cccc2c(-c3nc(Nc4ccc5c(c4)nc(C)n5CCN(C)C)ncc3C(F)(F)F)cn(C)c12` [Compound 371, N-(4-(1,7-dimethyl-1H-indol-3-yl)-5-(trifluoromethyl)pyrimidin-2-yl)-1-(2-(dimethylamino)ethyl)-2-methyl-1H-benzo[d]imidazol-5-amine] was run?
A: 110 nM

Q: Which IC50 does the source give for `CC(=O)Nc1cc(Nc2nc(-c3c[nH]c4cccc(F)c34)c3cc[nH]c3n2)ccc1N(C)CCN(C)C` [Compound 216, N-(2-((2-(dimethylamino)ethyl)(methyl)amino)-5-((4-(4-fluoro-1H-indol-3-yl)-7H-pyrrolo[2,3-d]pyrimidin-2-yl)amino)phenyl)acetamide] here?
A: 49.7 nM

Q: For `CC(=O)Nc1cc(Nc2ncc(Cl)c(-c3cn(C)c4c(C)cccc34)n2)ccc1N1CC[C@@H](N(C)C)C1` [Compound R-432, (R)—N-(5-((5-chloro-4-(1,7-dimethyl-1H-indol-3-yl)pyrimidin-2-yl)amino)-2-(3-(dimethylamino)pyrrolidin-1-yl)phenyl)acetamide], which IC50 is on record?
A: 130 nM

Q: How did the IC50 turn out when `CC(=O)Nc1cc(Nc2ncc(C(F)(F)F)c(-c3cn(C)c4c(F)cccc34)n2)ccc1N1CC[C@@H](N(C)C)C1` [Compound R-353, (R)—N-(2-(3-(dimethylamino)pyrrolidin-1-yl)-5-((4-(7-fluoro-1-methyl-1H-indol-3-yl)-5-(trifluoromethyl)pyrimidin-2-yl)amino)phenyl)acetamide] was run?
A: 64.3 nM

Q: For `CC(=O)Nc1cc(Nc2ncc(Cl)c(-c3cn(C)c4ccccc34)n2)ccc1N(C)CCN(C)C` [Compound 395, N-(5-((5-chloro-4-(1-methyl-1H-indol-3-yl)pyrimidin-2-yl)amino)-2-((2-(dimethylamino)ethyl)(methyl)amino)phenyl)acetamide], which IC50 is on record?
A: 77.3 nM

Q: With `CCN(CCN(C)C)c1ccc(Nc2ncc(C(F)(F)F)c(-c3c[nH]c4ccccc34)n2)cc1NC(C)=O` [Compound 300a, N-(5-((4-(1H-indol-3-yl)-5-(trifluoromethyl)pyrimidin-2-yl)amino)-2-((2-(dimethylamino)ethyl)(ethyl)amino)phenyl)acetamide] as the compound, how does the IC50 read?
A: 27.9 nM

Q: Which IC50 does the source give for `CC(=O)Nc1cc(Nc2ncc(C(F)(F)F)c(-c3cn(C)c4cccc(F)c34)n2)ccc1N(C)CCN(C)C` [Compound 320, N-(2-((2-(dimethylamino)ethyl)(methyl)amino)-5-((4-(4-fluoro-1-methyl-1H-indol-3-yl)-5-(trifluoromethyl)pyrimidin-2-yl)amino)phenyl)acetamide] here?
A: 91.1 nM

Q: How did the IC50 turn out when `COCCCN(C)c1cc(N2CCN(C)CC2)ccc1C(=O)Nc1c[nH]c2ccc(Cc3cc(F)cc(F)c3)cc12` [Compound 508, N-(5-(3,5-difluorobenzyl)-1H-indol-3-yl)-2-((3-methoxypropyl)(methyl)amino)-4-(4-methylpiperazin-1-yl)benzamide] was run?
A: > 1000 nM

Q: `CC(=O)Nc1cc(Nc2ncc(F)c(-c3cn(-c4ncc(F)c(-c5c[nH]c6ccccc56)n4)c4ccccc34)n2)ccc1N(C)CCN(C)C` [Compound 259b, N-(2-((2-(dimethylamino)ethyl)(methyl)amino)-5-((5-fluoro-4-(1-(5-fluoro-4-(1H-indol-3-yl)pyrimidin-2-yl)-1H-indol-3-yl)pyrimidin-2-yl)amino)phenyl)acetamide] was tested. Which IC50 did it give?
A: 541 nM

Q: Which IC50 does the source give for `CCN(CCN(C)C)c1ccc(Nc2ncc(C(F)(F)F)c(-c3c[nH]c4ccc(F)cc34)n2)cc1NC(C)=O` [Compound 323, N-(2-((2-(dimethylamino)ethyl)(ethyl)amino)-5-((4-(5-fluoro-1H-indol-3-yl)-5-(trifluoromethyl)pyrimidin-2-yl)amino)phenyl)acetamide] here?
A: 18.9 nM

Q: For `CN(C)CCN(C)c1ccc(Nc2nc(Oc3cccc(N)c3)c3cc[nH]c3n2)cc1F` [Compound 180, N^4-(4-(3-aminophenoxy)-7H-pyrrolo[2,3-d]pyrimidin-2-yl)-N^1-(2-(dimethylamino)ethyl)-2-fluoro-N1-methylbenzene-1,4-diamine], which IC50 is on record?
A: 3060 nM

Q: Which IC50 does the source give for `CN(C)CCN(C)c1ccc(Nc2ncc(C(F)(F)F)c(-c3cn(C)c4ccccc34)n2)cc1N` [Compound 306, N^1-(2-(dimethylamino)ethyl)-N^1-methyl-N^4-(4-(1-methyl-1H-indol-3-yl)-5-(trifluoromethyl)pyrimidin-2-yl)benzene-1,2,4-triamine] here?
A: 56.1 nM

Q: With `CCN(CCN(C)C)c1ccc(Nc2nc3c(c(-c4cn(C)c5ccccc45)n2)CCO3)cc1NC(C)=O` [Compound 258c, N-(2-((2-(dimethylamino)ethyl)(ethyl)amino)-5-((4-(1-methyl-1H-indol-3-yl)-5,6-dihydrofuro[2,3-d]pyrimidin-2-yl)amino)phenyl)acetamide] as the compound, how does the IC50 read?
A: > 1000 nM

Q: For `CN1CCN(c2ccc(C(=O)Nc3c[nH]c4cnc(Oc5cc(F)cc(F)c5)nc34)c(NC3CCOCC3)c2)CC1` [Compound 503, N-(2-(3,5-difluorophenoxy)-5H-pyrrolo[3,2-d]pyrimidin-7-yl)-4-(4-methylpiperazin-1-yl)-2-((tetrahydro-2H-pyran-4-yl)amino)benzamide], which IC50 is on record?
A: 3640 nM

Q: How did the IC50 turn out when `COc1cccc2c(-c3nc(Nc4ccc(N(CCN(C)C)C(C)=O)c(NC(C)=O)c4)ncc3C(F)(F)F)c[nH]c12` [Compound 379, N-(2-acetamido-4-((4-(7-methoxy-1H-indol-3-yl)-5-(trifluoromethyl)pyrimidin-2-yl)amino)phenyl)-N-(2-(dimethylamino)ethyl)acetamide] was run?
A: 149 nM

Q: How did the IC50 turn out when `CCN(CCN(C)C)c1ccc(Nc2nc3c(c(-c4cn(C)c5ccccc45)n2)COCC3)cc1NC(C)=O` [Compound 257c, N-(2-((2-(dimethylamino)ethyl)(ethyl)amino)-5-((4-(1-methyl-1H-indol-3-yl)-7,8-dihydro-5H-pyrano[4,3-d]pyrimidin-2-yl)amino)phenyl)acetamide] was run?
A: > 10000 nM

Same assay, conditions: KM12-Luc, 72 h, read-out: NTRK IC50 in KM12-luc

Q: Which IC50 does the source give for `CCNc1cc(Nc2nc(-c3cn(C)c4ccc(F)cc34)c3cc[nH]c3n2)ccc1N(C)CCN(C)C` [Compound 227b, N^1-(2-(dimethylamino)ethyl)-N^2-ethyl-N^4-(4-(5-fluoro-1-methyl-1H-indol-3-yl)-7H-pyrrolo[2,3-d]pyrimidin-2-yl)-N^1-methylbenzene-1,2,4-triamine] here?
A: 672 nM

Q: `CCNc1cc(Nc2nc(-c3cn(C)c4ccc(F)cc34)c3cc[nH]c3n2)ccc1N(CC)CCN(C)C` [Compound 227d, N^1-(2-(dimethylamino)ethyl)-N^1,N^2-diethyl-N^4-(4-(5-fluoro-1-methyl-1H-indol-3-yl)-7H-pyrrolo[2,3-d]pyrimidin-2-yl)benzene-1,2,4-triamine] was tested. Which IC50 did it give?
A: 2010 nM

Q: How did the IC50 turn out when `CCNc1cc(Nc2nc(-c3cn(C)c4cc(F)ccc34)c3cc[nH]c3n2)ccc1N(C)CCN(C)C` [Compound 232b, N^1-(2-(dimethylamino)ethyl)-N^2-ethyl-N^4-(4-(6-fluoro-1-methyl-1H-indol-3-yl)-7H-pyrrolo[2,3-d]pyrimidin-2-yl)-N^1-methylbenzene-1,2,4-triamine] was run?
A: 492 nM

Same assay, conditions: KM12-luc cells, treated with test compounds for 72 hrs, CCK-8 viability; read-out: NTRK IC50 in KM12-luc

Q: For `CC(=O)Nc1cc(Nc2nc(-c3cn(C)nc3C)c3cc[nH]c3n2)ccc1N(C)CCN(C)C` [Compound 255b, N-(5-(4-(1,3-dimethyl-1H-pyrazol-4-yl)-7H-pyrrolo[2,3-d]pyrimidin-2-ylamino)-2-((2-(dimethylamino)ethyl)(methyl)amino)phenyl)acetamide], which IC50 is on record?
A: > 10000 nM

Q: With `COc1cccc2c(-c3nc(Nc4ccc(N5CC[C@@H](N(C)C)C5)c(N)c4)ncc3Cl)cn(C)c12` [Compound R-420, (R)—N^1-(5-chloro-4-(7-methoxy-1-methyl-1H-indol-3-yl)pyrimidin-2-yl)-4-(3-(dimethylamino)pyrrolidin-1-yl)benzene-1,3-diamine] as the compound, how does the IC50 read?
A: 72 nM

— patent US20250136576A1, “Heterocyclic Compounds and Uses Thereof” (ACEA Therapeutics, Inc., priority 2021, published 2025)
